From the supplement of paper PMC10307832

Legend:
Assay in all cases: relative viability (nuclei count vs DMSO), 5 days (fraction); higher = more cells survive
VX-702 + Tozasertib = compound: NC(=O)c1ccc(N(C(N)=O)c2c(F)cccc2F)nc1-c1ccc(F)cc1F [VX-702] + Cc1cc(Nc2cc(N3CCN(C)CC3)nc(Sc3ccc(NC(=O)C4CC4)cc3)n2)n[nH]1 [Tozasertib] (partner 0.1 µM)
Method in brief: (§1)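 Relative viability divides the nuclei count in treated wells by that in vehicle wells. Lung cancer cell lines were seeded in 1536-well plates, dosed by pin tool the next day, and fixed and stained after 5 days in one step with final 0.05% Triton X-100, 1% formaldehyde and 1 ug/ml Hoechst. Dosing was a single drug or a fixed anchor-drug dose plus five library-drug doses (not always all listed) in √10 steps, and values are medians of duplicate plates imaged at 4×.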

VX-702 + Olaparib = compound: NC(=O)c1ccc(N(C(N)=O)c2c(F)cccc2F)nc1-c1ccc(F)cc1F [VX-702] + O=C(c1cc(Cc2n[nH]c(=O)c3ccccc23)ccc1F)N1CCN(C(=O)C2CC2)CC1 [Olaparib] (partner 8 µM)
Method in brief: as §1

VX-702 + Luminespib = compound: NC(=O)c1ccc(N(C(N)=O)c2c(F)cccc2F)nc1-c1ccc(F)cc1F [VX-702] + CCNC(=O)c1noc(-c2cc(C(C)C)c(O)cc2O)c1-c1ccc(CN2CCOCC2)cc1 [Luminespib] (partner 0.01 µM)
Method in brief: as §1

Dabrafenib + Vorinostat = compound: CC(C)(C)c1nc(-c2cccc(NS(=O)(=O)c3c(F)cccc3F)c2F)c(-c2ccnc(N)n2)s1 [Dabrafenib] + O=C(CCCCCCC(=O)Nc1ccccc1)NO [Vorinostat] (partner 1 µM)
Method in brief: as §1

## NCI-H2405
VX-702 + Tozasertib; first compound 0.02 µM
  relative viability: 0.816
VX-702 + Tozasertib; first compound 0.2 µM
  relative viability: 0.724
VX-702 + Tozasertib; first compound 0.6325 µM
  relative viability: 0.717
VX-702 + Tozasertib; first compound 2 µM
  relative viability: 0.726
VX-702 + Olaparib; first compound 0.02 µM
  relative viability: 0.931
VX-702 + Olaparib; first compound 0.2 µM
  relative viability: 0.805
VX-702 + Olaparib; first compound 0.6325 µM
  relative viability: 0.897
VX-702 + Olaparib; first compound 2 µM
  relative viability: 0.901
VX-702 + Luminespib; first compound 0.02 µM
  relative viability: 0.659
VX-702 + Luminespib; first compound 0.2 µM
  relative viability: 0.641
VX-702 + Luminespib; first compound 0.6325 µM
  relative viability: 0.799
VX-702 + Luminespib; first compound 2 µM
  relative viability: 0.73
Dabrafenib + Vorinostat; first compound 0.009487 µM
  relative viability: 1
Dabrafenib + Vorinostat; first compound 0.03 µM
  relative viability: 0.488
Dabrafenib + Vorinostat; first compound 0.09487 µM
  relative viability: 0.81
Dabrafenib + Vorinostat; first compound 0.3 µM
  relative viability: 0.962

## NCI-H3122
VX-702 + Tozasertib; first compound 0.02 µM
  relative viability: 0.328
VX-702 + Tozasertib; first compound 0.2 µM
  relative viability: 0.34
VX-702 + Tozasertib; first compound 0.6325 µM
  relative viability: 0.379
VX-702 + Tozasertib; first compound 2 µM
  relative viability: 0.49
VX-702 + Olaparib; first compound 0.02 µM
  relative viability: 0.636
VX-702 + Olaparib; first compound 0.2 µM
  relative viability: 0.61
VX-702 + Olaparib; first compound 0.6325 µM
  relative viability: 0.66
VX-702 + Olaparib; first compound 2 µM
  relative viability: 0.555
VX-702 + Luminespib; first compound 0.02 µM
  relative viability: 0.0998
VX-702 + Luminespib; first compound 0.2 µM
  relative viability: 0.0746
VX-702 + Luminespib; first compound 0.6325 µM
  relative viability: 0.0992
VX-702 + Luminespib; first compound 2 µM
  relative viability: 0.0951
Dabrafenib + Vorinostat; first compound 0.003 µM
  relative viability: 0.978
Dabrafenib + Vorinostat; first compound 0.009487 µM
  relative viability: 0.966
Dabrafenib + Vorinostat; first compound 0.03 µM
  relative viability: 0.916
Dabrafenib + Vorinostat; first compound 0.09487 µM
  relative viability: 0.991
Dabrafenib + Vorinostat; first compound 0.3 µM
  relative viability: 1.02

## PC-3 [JPC-3]
VX-702 + Tozasertib; first compound 0.02 µM
  relative viability: 0.883
VX-702 + Tozasertib; first compound 0.2 µM
  relative viability: 0.896
VX-702 + Tozasertib; first compound 0.6325 µM
  relative viability: 0.922
VX-702 + Tozasertib; first compound 2 µM
  relative viability: 0.957
VX-702 + Olaparib; first compound 0.02 µM
  relative viability: 1.2
VX-702 + Olaparib; first compound 0.2 µM
  relative viability: 1.14
VX-702 + Olaparib; first compound 0.6325 µM
  relative viability: 1.16
VX-702 + Olaparib; first compound 2 µM
  relative viability: 1.31
VX-702 + Luminespib; first compound 0.02 µM
  relative viability: 0.636
VX-702 + Luminespib; first compound 0.2 µM
  relative viability: 0.695
VX-702 + Luminespib; first compound 0.6325 µM
  relative viability: 0.686
VX-702 + Luminespib; first compound 2 µM
  relative viability: 0.668
Dabrafenib + Vorinostat; first compound 0.009487 µM
  relative viability: 0.981
Dabrafenib + Vorinostat; first compound 0.03 µM
  relative viability: 0.713
Dabrafenib + Vorinostat; first compound 0.09487 µM
  relative viability: 0.771
Dabrafenib + Vorinostat; first compound 0.3 µM
  relative viability: 1.12

## PC-14
VX-702 + Tozasertib; first compound 0.02 µM
  relative viability: 0.559
VX-702 + Tozasertib; first compound 0.2 µM
  relative viability: 0.527
VX-702 + Tozasertib; first compound 0.6325 µM
  relative viability: 0.551
VX-702 + Tozasertib; first compound 2 µM
  relative viability: 0.587
VX-702 + Olaparib; first compound 0.02 µM
  relative viability: 0.315
VX-702 + Olaparib; first compound 0.2 µM
  relative viability: 0.329
VX-702 + Olaparib; first compound 0.6325 µM
  relative viability: 0.338
VX-702 + Olaparib; first compound 2 µM
  relative viability: 0.282
VX-702 + Luminespib; first compound 0.02 µM
  relative viability: 0.138
VX-702 + Luminespib; first compound 0.2 µM
  relative viability: 0.171
VX-702 + Luminespib; first compound 0.6325 µM
  relative viability: 0.158
VX-702 + Luminespib; first compound 2 µM
  relative viability: 0.175
Dabrafenib + Vorinostat; first compound 0.009487 µM
  relative viability: 0.829
Dabrafenib + Vorinostat; first compound 0.03 µM
  relative viability: 0.737
Dabrafenib + Vorinostat; first compound 0.09487 µM
  relative viability: 0.757
Dabrafenib + Vorinostat; first compound 0.3 µM
  relative viability: 0.73

## RERF-LC-KJ
VX-702 + Tozasertib; first compound 0.02 µM
  relative viability: 0.538
VX-702 + Tozasertib; first compound 0.2 µM
  relative viability: 0.477
VX-702 + Tozasertib; first compound 0.6325 µM
  relative viability: 0.541
VX-702 + Tozasertib; first compound 2 µM
  relative viability: 0.463
VX-702 + Olaparib; first compound 0.02 µM
  relative viability: 1.01
VX-702 + Olaparib; first compound 0.2 µM
  relative viability: 0.854
VX-702 + Olaparib; first compound 0.6325 µM
  relative viability: 0.921
VX-702 + Olaparib; first compound 2 µM
  relative viability: 0.901
VX-702 + Luminespib; first compound 0.02 µM
  relative viability: 1.19
VX-702 + Luminespib; first compound 0.2 µM
  relative viability: 1.2
VX-702 + Luminespib; first compound 0.6325 µM
  relative viability: 1.12
VX-702 + Luminespib; first compound 2 µM
  relative viability: 1.67
Dabrafenib + Vorinostat; first compound 0.003 µM
  relative viability: 0.745
Dabrafenib + Vorinostat; first compound 0.009487 µM
  relative viability: 0.779
Dabrafenib + Vorinostat; first compound 0.03 µM
  relative viability: 0.706
Dabrafenib + Vorinostat; first compound 0.09487 µM
  relative viability: 0.618
Dabrafenib + Vorinostat; first compound 0.3 µM
  relative viability: 0.789

## SK-LU-1
VX-702 + Tozasertib; first compound 0.02 µM
  relative viability: 0.337
VX-702 + Tozasertib; first compound 0.2 µM
  relative viability: 0.315
VX-702 + Tozasertib; first compound 0.6325 µM
  relative viability: 0.311
VX-702 + Tozasertib; first compound 2 µM
  relative viability: 0.476
VX-702 + Olaparib; first compound 0.02 µM
  relative viability: 0.504
VX-702 + Olaparib; first compound 0.2 µM
  relative viability: 0.435
VX-702 + Olaparib; first compound 0.6325 µM
  relative viability: 0.526
VX-702 + Olaparib; first compound 2 µM
  relative viability: 0.567
VX-702 + Luminespib; first compound 0.02 µM
  relative viability: 0.211
VX-702 + Luminespib; first compound 0.2 µM
  relative viability: 0.177
VX-702 + Luminespib; first compound 0.6325 µM
  relative viability: 0.2
VX-702 + Luminespib; first compound 2 µM
  relative viability: 0.207
Dabrafenib + Vorinostat; first compound 0.009487 µM
  relative viability: 0.716
Dabrafenib + Vorinostat; first compound 0.03 µM
  relative viability: 0.692
Dabrafenib + Vorinostat; first compound 0.09487 µM
  relative viability: 0.605
Dabrafenib + Vorinostat; first compound 0.3 µM
  relative viability: 0.651

## SK-MES-1
VX-702 + Tozasertib; first compound 0.02 µM
  relative viability: 0.92
VX-702 + Tozasertib; first compound 0.2 µM
  relative viability: 0.944
VX-702 + Tozasertib; first compound 0.6325 µM
  relative viability: 0.914
VX-702 + Tozasertib; first compound 2 µM
  relative viability: 0.995
VX-702 + Olaparib; first compound 0.02 µM
  relative viability: 0.679
VX-702 + Olaparib; first compound 0.2 µM
  relative viability: 0.681
VX-702 + Olaparib; first compound 0.6325 µM
  relative viability: 0.622
VX-702 + Olaparib; first compound 2 µM
  relative viability: 0.696
VX-702 + Luminespib; first compound 0.02 µM
  relative viability: 0.839
VX-702 + Luminespib; first compound 0.2 µM
  relative viability: 0.711
VX-702 + Luminespib; first compound 0.6325 µM
  relative viability: 0.673
VX-702 + Luminespib; first compound 2 µM
  relative viability: 0.822
Dabrafenib + Vorinostat; first compound 0.009487 µM
  relative viability: 1.05
Dabrafenib + Vorinostat; first compound 0.03 µM
  relative viability: 1.14
Dabrafenib + Vorinostat; first compound 0.09487 µM
  relative viability: 1.04
Dabrafenib + Vorinostat; first compound 0.3 µM
  relative viability: 0.854

## SW 1573
VX-702 + Tozasertib; first compound 0.02 µM
  relative viability: 0.145
VX-702 + Tozasertib; first compound 0.2 µM
  relative viability: 0.168
VX-702 + Tozasertib; first compound 0.6325 µM
  relative viability: 0.173
VX-702 + Tozasertib; first compound 2 µM
  relative viability: 0.243
VX-702 + Olaparib; first compound 0.02 µM
  relative viability: 0.495
VX-702 + Olaparib; first compound 0.2 µM
  relative viability: 0.445
VX-702 + Olaparib; first compound 0.6325 µM
  relative viability: 0.438
VX-702 + Olaparib; first compound 2 µM
  relative viability: 0.448
VX-702 + Luminespib; first compound 0.02 µM
  relative viability: 0.215
VX-702 + Luminespib; first compound 0.2 µM
  relative viability: 0.138
VX-702 + Luminespib; first compound 0.6325 µM
  relative viability: 0.261
VX-702 + Luminespib; first compound 2 µM
  relative viability: 0.232
Dabrafenib + Vorinostat; first compound 0.003 µM
  relative viability: 0.73
Dabrafenib + Vorinostat; first compound 0.009487 µM
  relative viability: 0.719
Dabrafenib + Vorinostat; first compound 0.03 µM
  relative viability: 0.672
Dabrafenib + Vorinostat; first compound 0.09487 µM
  relative viability: 0.552
Dabrafenib + Vorinostat; first compound 0.3 µM
  relative viability: 0.673

## UMC-11
VX-702 + Tozasertib; first compound 0.02 µM
  relative viability: 0.202
VX-702 + Tozasertib; first compound 0.2 µM
  relative viability: 0.207
VX-702 + Tozasertib; first compound 0.6325 µM
  relative viability: 0.186
VX-702 + Tozasertib; first compound 2 µM
  relative viability: 0.198
VX-702 + Olaparib; first compound 0.02 µM
  relative viability: 0.346
VX-702 + Olaparib; first compound 0.2 µM
  relative viability: 0.352
VX-702 + Olaparib; first compound 0.6325 µM
  relative viability: 0.368
VX-702 + Olaparib; first compound 2 µM
  relative viability: 0.269
VX-702 + Luminespib; first compound 0.02 µM
  relative viability: 0.993
VX-702 + Luminespib; first compound 0.2 µM
  relative viability: 0.865
VX-702 + Luminespib; first compound 0.6325 µM
  relative viability: 0.805
VX-702 + Luminespib; first compound 2 µM
  relative viability: 1.11
Dabrafenib + Vorinostat; first compound 0.003 µM
  relative viability: 0.379
Dabrafenib + Vorinostat; first compound 0.009487 µM
  relative viability: 0.362
Dabrafenib + Vorinostat; first compound 0.03 µM
  relative viability: 0.409
Dabrafenib + Vorinostat; first compound 0.09487 µM
  relative viability: 0.473
Dabrafenib + Vorinostat; first compound 0.3 µM
  relative viability: 0.454
